Measured values from patent USRE38424E1 (The United States of America as represented by the …, priority 1994, dated 2004).
Where “and” joins values, the source holds several entries; their conditions need not be identical. Identical values can stand only once. Like-named read-outs stand apart in the source and are kept apart here.

Tests used:
[1] = system: ovarian cancer; experiment: Published studies of taxol without G-CSF: response rate; format: in vivo, human; details: 33 of 110 patients
Text: This agent is derived from the bark of the Western Yew tree, taxus brevifolia (Chabner, PPO Update, 5 (9), 1-10 (1991); Rowinsky et al., J. Nat'Cancer Inst., 82, 1247-1259 (1990)).

[2] = in vivo
Description: All toxicities were graded according to the NCI-CTEP criteria, with the exception of peripheral neuropathy which was graded as described previously herein.
Dose limiting toxicity (DLT) was defined as any of the following criteria occurring in two of three patients treated at a given dose level: (1) reversible non-hematologic toxicity of at least grade 3; (2) irreversible non-hematologic toxicity of at least grade 2; or (3) the persistence of a nadir with an absolute granulocyte count of less than 500 cells/mm^3 or platelet count of less than 25,000/mm^3 for five days or more.

[3] = system: ovarian cancer; details: cited from earlier work; for Response rate: taxol without G-CSF
[4] = system: epithelial ovarian cancer; experiment: Phase I taxol dose escalation with G-CSF support: disease response; format: in vivo, human
Description: Patients with histologically proven epithelial ovarian cancer with bidimensionally measurable disease were candidates for the study.
All patients received subsequent cycles of therapy on the general medical oncology in-patient ward.
A G-CSF dose of 10 μg/kg/day was used. […] This was determined by checking WBC and platelet counts on a twice weekly basis.
Patients who had normalization of serum CA-125 levels and complete resolution of all assessable disease confirmed at peritoneoscopy Were assessed as having a clinical complete response to therapy (CCR). A partial response (PR) was designated for individuals experiencing a greater than 50% reduction in the sum of the products of the greatest perpendicular diameters of all measurable lesions that lasted at least one month. A minor response (MR) was defined as a greater than 25% but less than 50% reduction in the sum of the products of the greatest perpendicular diameters of all measurable lesions lasting at least one month. Patients with a less than 25% reduction in tumor volume after two cycles of therapy were considered to be nonresponders and were taken off therapy. Patients who experienced greater than 25% reduction in tumor volume and/or a more than 50% reduction in CA-125 level received two cycles beyond maximal response. Patients with CCR received two cycles beyond peritoneoscopy.

[5] = Totals, all dose levels 170-300 mg/m^2, 14 patients assessable
[6] = Totals, all dose levels 170-300 mg/m^2, 14 patients assessable, listed as taxol
[7] = taxol 170 mg/m^2, 2 patients assessable
[8] = taxol 200 mg/m^2, 3 patients assessable
[9] = taxol 250 mg/m^2, 6 patients assessable
[10] = taxol 300 mg/m^2, 3 patients assessable

CC(=O)O[C@H]1C(=O)[C@@]2(C)[C@H]([C@H](OC(=O)c3ccccc3)[C@]3(O)C[C@H](OC(=O)[C@H](O)[C@@H](NC(=O)c4ccccc4)c4ccccc4)C(C)=C1C3(C)C)[C@]1(OC(C)=O)CO[C@@H]1C[C@@H]2O [Taxol, taxol]
Response rate, three combined studies [1]: 30%
Dose at which dose limiting toxicity (DLT) was reached ([2]; female, human): 300 mg/m2/21 days
Duration of granulocytopenia occurring in spite of G-CSF support ([2]; female, human): less than 5 days
Persistence of neurologic symptoms beyond the peak ([2]; female, human): 1 to 2 weeks
Persistence of symptoms of grade 3 neuropathy ([2]; female, human): up to 6 months
Time of nadir heart rate into therapy, range ([2]; female, human): 1 to 21 h
Mean nadir heart rate (±SEM) ([2]; female, human, 1 cycle): 60±11 bpm
Nadir heart rate, range ([2]; female, human, 1 cycle): 46-84 bpm
Number of individuals whose heart rate fell below 60 bpm ([2]; female, human, 1 cycle): 10
Mean nadir heart rate ([2]; female, human, 2 cycle): 61±8 bpm
Nadir heart rate, range ([2]; female, human, 2 cycle): 46-75 bpm
Number of individuals whose heart rate fell below 60 bpm ([2]; female, human, 2 cycle): 6
Alopecia and grade 1 to 2 myalgias observed [2]: all patients
Patients in whom mucositis was observed [2]: two
Patients with peripheral neuropathy of grade 3 [2]: three
Objective response rate ([3]; "standard" dose of taxol (about 135 mg/m^2/ 21 days)): about 30%
Response rate ([3]; Einzig et al.): 21%
Response rate ([3]; Gynecologic Oncology Group (Thigpen et al.)): 36%
Response rate ([3]; McGuire et al.): 33%
Patients with objective responses ([3]; taxol 110 to 200 mg/m^2, cisplatin-sensitive and cisplatin-resistant advanced stage epithelial ovarian cancer): about 30%
Patients with an objective response to therapy ([4]; Five of 14 assessable patients, all dose levels): 36%
No. CCR (clinical complete response) [4, 5]: 1
No. MR (minor response) [4, 5]: 5
No. NR (no response; progressive disease on therapy) [4, 5]: 4
No. PR (partial response) [4, 5]: 4
No. CCR (clinical complete response) [4, 6]: one
No. MR (minor response) [4, 6]: Five
No. NR (no response; progressive disease on therapy) [4, 6]: Four
No. PR (partial response) [4, 6]: four
Reductions in tumor mass in patients with a minor response ([4]; five patients): 30% to 46%
Response durations for PR ([4]; phase I, individual PR patients): 30 weeks and ≥ 25 weeks and ≥ 23 weeks and 11 weeks
Response duration for CCR ([4]; phase I, the one CCR patient): ≥ 30 weeks
No. NR (no response) [4, 7]: 1
No. PR (partial response) [4, 7]: 1
No. CCR (clinical complete response) [4, 8]: 1
No. MR (minor response) [4, 8]: 1
No. NR (no response) [4, 8]: 1
No. MR (minor response) [4, 9]: 3
No. NR (no response) [4, 9]: 2
No. PR (partial response) [4, 9]: 2
No. MR (minor response) [4, 10]: 1
No. PR (partial response) [4, 10]: 2
